Data: patent US8637484B2, “Modulation of growth hormone receptor expression and insulin-like growth factor expression” (Antisense Therapeutic Limited, priority 2003, dated 2014)
In the oligonucleotide strings, read from the 5' end, every base follows the letter of its sugar. An asterisk marks phosphorothioate; unmarked linkages are phosphodiester. Other units and linkages are bracketed, terminal groups are in braces. A string of capitals states the bases alone. e = 2'-O-(2-methoxyethyl) (MOE); [5mC] = 5-methylcytosine; d = 2'-deoxy (DNA)

Legend:
[1] = system: mouse growth hormone receptor mRNA; test: Inhibition of mouse growth hormone receptor mRNA levels in b.END cells, quantitative real-time PCR; format: cell-based; design: % INHIB: concentration or dose not given beside the values; conditions: mouse growth hormone receptor mRNA, b.END cells, averages from three experiments
Protocol: The mouse brain endothelial cell line b.END was obtained from Dr. Werner Risau at the Max Plank Instititute (Bad Nauheim, Germany). b.END cells were routinely cultured in DMEM, high glucose (Gibco/Life Technologies, Gaithersburg, Md.) supplemented with 10% fetal calf serum (Gibco/Life Technologies, Gaithersburg, Md.). Cells were routinely passaged by trypsinization and dilution when they reached 90% confluence. Cells were seeded into 96-well plates (Falcon-Primaria #3872) at a density of 3000 cells/well for use in RT-PCR analysis.
When cells reached 65-75% confluency, they were treated with oligonucleotide. For cells grown in 96-well plates, wells were washed once with 100 μL OPTI-MEM™-1 reduced-serum medium (Invitrogen Corporation, Carlsbad, Calif.) and then treated with 130 μL of OPTI-MEM™-1 containing 3.75 μg/mL LIPOFECTIN™ (Invitrogen Corporation, Carlsbad, Calif.) and the desired concentration of oligonucleotide. Cells are treated and data are obtained in triplicate. After 4-7 hours of treatment at 37° C., the medium was replaced with fresh medium. Cells were harvested 16-24 hours after oligonucleotide treatment.
Total RNA was isolated using an RNEASY 96™ kit and buffers purchased from Qiagen Inc. (Valencia, Calif.) following the manufacturer's recommended procedures. Briefly, for cells grown on 96-well plates, growth medium was removed from the cells and each well was washed with 200 μL cold PBS. 150 μL Buffer RLT was added to each well and the plate vigorously agitated for 20 seconds. 150 μL of 70% ethanol was then added to each well and the contents mixed by pipetting three times up and down. The samples were then transferred to the RNEASY 96™ well plate attached to a QIAVAC™ manifold fitted with a waste collection tray and attached to a vacuum source. Vacuum was applied for 1 minute. 500 μL of Buffer RW1 was added to each well of the RNEASY 96™ plate and incubated for 15 minutes and the vacuum was again applied for 1 minute. An additional 500 μL of Buffer RW1 was added to each well of the RNEASY 96™ plate and the vacuum was applied for 2 minutes. 1 mL of Buffer RPE was then added to each well of the RNEASY 96™ plate and the vacuum applied for a period of 90 seconds. The Buffer RPE wash was then repeated and the vacuum was applied for an additional 3 minutes. The plate was then removed from the QIAVAC™ manifold and blotted dry on paper towels. The plate was then re-attached to the QIAVAC™ manifold fitted with a collection tube rack containing 1.2 mL collection tubes. RNA was then eluted by pipetting 140 μL of RNAse free water into each well, incubating 1 minute, and then applying the vacuum for 3 minutes.
Quantitation of growth hormone receptor mRNA levels was accomplished by real-time quantitative PCR using the ABI PRISM™ 7600, 7700, or 7900 Sequence Detection System (PE-Applied Biosystems, Foster City, Calif.) according to manufacturer's instructions. This is a closed-tube, non-gel-based, fluorescence detection system which allows high-throughput quantitation of polymerase chain reaction (PCR) products in real-time. As opposed to standard PCR in which amplification products are quantitated after the PCR is completed, products in real-time quantitative PCR are quantitated as they accumulate. This is accomplished by including in the PCR reaction an oligonucleotide probe that anneals specifically between the forward and reverse PCR primers, and contains two fluorescent dyes. A reporter dye (e.g., FAM or JOE, obtained from either PE-Applied Biosystems, Foster City, Calif., Operon Technologies Inc., Alameda, Calif. or Integrated DNA Technologies Inc., Coralville, Iowa) is attached to the 5′ end of the probe and a quencher dye (e.g., TAMRA, obtained from either PE-Applied Biosystems, Foster City, Calif., Operon Technologies Inc., Alameda, Calif. or Integrated DNA Technologies Inc., Coralville, Iowa) is attached to the 3′ end of the probe. […]

serum IGF-I [2] = test: Serum IGF-I, two-week mouse study; format: in vivo; conditions: for % decrease relative to 3 mg/kg ISIS 261303: day 14
Protocol: (§1) A two-week study was done in similar fashion to the one-week study in Example 18, this time using ISIS 227446 at doses of 3, 5, 10, 20 and 30 mg/kg. The mismatch control was given at the same doses. Mice were treated with antisense compound or saline every other day for 14 days.
P-values were determined by t-test.

growth hormone receptor = test: [125I] hGH specific binding assay on liver microsomal membranes of treated mice; format: in vivo, mouse
Protocol: Specific binding assays were carried out with liver tissue using iodinated human growth hormone [^125I] hGH.
Microsomal membrane preparations were obtained as follows. 400 mg of tissue powder was homogenized in cold homogenizing buffer (50 mM Tris/HCl, 250 mM sucrose, pH 7.4). This was centrifuged at 2000 rpm for 10 min at 3° C. and the supernatant was saved. This was centrifuged again at 15,000 rpm for 20 min. Pellets were resuspended in 0.5 ml of RRA buffer with inhibitor (50 mM Tris, 20 mM MgC12, pH 7.4). Microsomal preparation samples were stored at −80° C. until the specific binding assay.
The [^125I] hGH specific binding assay was done as follows. Four glass tubes were set up for each sample, two for (−), two for (+). Different sample and solutions were added in each tube as follows (i) 0.2 ml RRA buffer (50 mM Tris, 20 mM MgCl2, 0.1% BSA, pH 7.4); (ii) 0.1 ml membrane (1/2 or 1/4 dilution); (iii) 0.1 ml bGH (10 μg/ml) for the (+) tube or 0.1 ml RRA buffer for the (−) tube; and (iv) 0.1 ml [^125I]-hGH tracer.
Samples were incubated at 4° C. with shaking overnight. The reaction was stopped with 2.5 ml of cold RRA, and the sample centrifuged at 2800 rpm for 25 min at 4° C. Supernatant was aspirated and pellets counted using the γ-counter. The specific binding capacity was calculated as: CPM(−)-CPM(+) Protein content of the microsomal samples was determined by the BCA protein assay.

[3] = system: growth hormone receptor mRNA; test: Growth hormone receptor mRNA levels in liver, two-week mouse study; format: in vivo; conditions: 30 mg/kg
Protocol: as §1
Growth hormone receptor mRNA levels in liver tissue samples from treated and untreated mice in this two-week study were assayed. The growth hormone receptor antisense inhibitor ISIS 227446 reduced growth hormone receptor mRNA levels in liver after the two-week study by 50% at the 20 mg/kg dose relative to saline control (p<0.001). The 30 mg/kg dose of ISIS 227446 yielded a 53% decrease in growth hormone receptor mRNA (p<0.0001). The mismatch control oligonucleotide ISIS 261303 (SEQ ID NO: 267), at 30 mg/kg, reduced growth hormone receptor mRNA levels by approximately 3%.

[4] = system: serum insulin-like growth factor-I; test: Serum IGF-I by radioimmunoassay, 1 week pilot study in Balb/C(a) mice; format: in vivo, mouse; conditions: for % IGF-I reduction: 30 mg/kg once every 2 days, serum IGF-I at day 7 compared to saline control at day 7
Protocol: Forty male Balb/C(a) mice weighing 9 to 10 g were placed into cages, 4 animals per cage, and allowed to assimilate into their environment with new littermates ˜1 week prior (Day −7) to the commencement of 1 week study. Mice of this age would be at their maximum growth rate. Their body weights were measured and recorded every second day during this period. When mice weighed 11 g (day −2), a blood sample was collected under anesthesia as described below, and a serum IGF-I assay was performed to determine pre-treatment values and to aid in the assigning of mice to treatment groups in order to reduce animal variability. To obtain the blood sample, the animals were anaesthetized with pentobarbital (50 mg/kg i.p.) and non-fasting blood samples collected exactly 5 minutes later from the retrobulbar plexus through heparinized capillary tubes under light ether anesthesia. The 40 animals were placed into five groups with each group having a similar weight average and similar IGF-I average concentration for the trial.
Animals (n=8/group) were designated to the following five treatment groups:
Saline, antisense, mismatch control and octreotide samples were prepared, and coded for blinding. Animals were given a subcutaneous dose of saline every second day, and mismatch control or antisense with administration on days 0, 2, 4, 6. Animals were given twice daily doses of 25 μg octreotide. Animals were housed 4 per cage, for the duration of one week. They had access to a pre-determined quantity of standard mouse food and water at all times throughout the experiment. They were housed in a quiet, temperature- and humidity-maintained environment for the entirety of the study. At day 0 and before treatment on each day or second day, the animals had their body weight and food intake measured, enabling the correct dose of agent to be administered. The animals were monitored closely for any changes in fur, skin, eye, locomotion or other changes in behavior. No problems were observed. Every second day from day −7 to day 7 body weight and food intake were measured.
On day 7, one day after the last dose of antisense, and/or after the last octreotide dose, the animals were anaesthetized with pentobarbital (50 mg/kg i.p.) and non-fasting blood samples collected exactly 5 minutes later from the retrobulbar plexus through heparinized capillary tubes under light ether anesthesia (as on day −7 and 0).
At day −2 and day 7, serum IGF-I measurement was done by radioimmunoassay. Serum IGF-I level is the most widely used measure of growth hormone biological activity in human therapy. It is used to measure the efficacy of growth hormone antagonist treatments like Trovert, which block cells' responsiveness to excess growth hormone, and dopamine agonists and octreotide somatostatin […] drugs that block growth hormone secretion from the pituitary.

[5] = system: growth hormone receptor mRNA; test: Growth hormone receptor mRNA levels in liver, additional 1 week study; format: in vivo, mouse; conditions: 50 mg/kg, one-week study
Protocol: (§2) Male Balb/C(a) mice were prepared and grouped for analysis as in Example 18 above.
(§3) Animals were treated and serum IGF-I levels were measured as in Example 18 above. Briefly, for the one-week study, mice were given a subcutaneous dose of saline every second day, and mismatch control or antisense with administration on days 0, 2, 4, 6. On day 7, the animals were anaesthetized with pentobarbital and non-fasting blood samples collected exactly 5 minutes later from the retrobulbar plexus through heparinized capillary tubes under light ether anesthesia. Serum IGF-I measurement was done by radioimmunoassay at day 7.
Growth hormone receptor mRNA levels in liver tissue samples from treated and untreated mice in this one-week study were assayed. The growth hormone receptor antisense inhibitor ISIS 227446 reduced growth hormone receptor mRNA levels in liver after the one-week study by 72% at the 50 mg/kg dose, relative to saline control (p<0.0001). The 30 mg/kg dose of ISIS 227446 yielded a 50% decrease in growth hormone receptor mRNA (p<0.0001). The unrelated control oligonucleotide ISIS 260120, at 50 mg/kg, reduced growth hormone receptor mRNA levels by approximately 15% (p>0.05).

serum IGF-I [6] = test: Serum IGF-I, additional 1 week study in mice; format: in vivo, mouse; conditions: 50 mg/kg once every 2 days, day 7
Protocol: as §2
Animals (n=10/group) were designated to the following treatment groups:
as §3

[7] = 30 mg/kg every second day for one week, liver membranes

227517 (antisense e[5mC]*eT*eT*e[5mC]*eA*d[5mC]*dT*dA*dA*d[5mC]*d[5mC]*dT*dT*dG*d[5mC]*eA*eG*e[5mC]*eT*eT) [compound 227517]
% INHIB [1]: 63%

227518 (antisense e[5mC]*eA*e[5mC]*eG*eG*d[5mC]*dT*dT*dA*d[5mC]*d[5mC]*dT*dA*dT*dT*eT*e[5mC]*eG*eT*e[5mC]) [compound 227518]
% INHIB [1]: 6%

227519 (antisense eT*e[5mC]*eA*e[5mC]*eA*d[5mC]*d[5mC]*dT*dA*d[5mC]*d[5mC]*dT*dT*dT*dG*e[5mC]*eT*eG*e[5mC]*eT) [compound 227519]
% INHIB [1]: 44%

227520 (antisense e[5mC]*eA*eT*e[5mC]*eT*dT*dA*dA*dT*d[5mC]*d[5mC]*dT*dT*dG*dG*eA*eA*eA*e[5mC]*eA) [compound 227520]
% INHIB [1]: 42%

ISIS 261303: negative control oligonucleotide, SEQ ID NO: 267, 8-base mismatch to ISIS 227446 (AGAGAGCTACCTAACTAACA; chemistry not given here) [reference compound]
Day 14 serum IGF-I (serum IGF-I [2]; 3 mg/kg every other day for 14 days): 184 ng/mL
% decrease relative to 3 mg/kg ISIS 261303 (serum IGF-I [2]; 3 mg/kg): 0%
Day 14 serum IGF-I (serum IGF-I [2]; 5 mg/kg every other day for 14 days): 186 ng/mL
% decrease relative to 3 mg/kg ISIS 261303 (serum IGF-I [2]; 5 mg/kg): 0%
Day 14 serum IGF-I (serum IGF-I [2]; 10 mg/kg every other day for 14 days): 174 ng/mL
% decrease relative to 3 mg/kg ISIS 261303 (serum IGF-I [2]; 10 mg/kg): 5%
Day 14 serum IGF-I (serum IGF-I [2]; 20 mg/kg every other day for 14 days): 164 ng/mL
% decrease relative to 3 mg/kg ISIS 261303 (serum IGF-I [2]; 20 mg/kg): 11%
Day 14 serum IGF-I (serum IGF-I [2]; 30 mg/kg every other day for 14 days): 130 ng/mL
% decrease relative to 3 mg/kg ISIS 261303 (serum IGF-I [2]; 30 mg/kg): 29%
Specific binding/mg protein (cpm) ¼ dilution (growth hormone receptor; [7]): 8431 ± 2663 cpm
Specific binding/mg protein (cpm) ½ dilution (growth hormone receptor; [7]): 7090 ± 1877 cpm
growth hormone receptor levels (growth hormone binding activity), % of control (saline) group (growth hormone receptor; 30 mg/kg sc every second day for one week): no effect
decrease in growth hormone receptor mRNA in liver [3]: approximately 3%
% IGF-I reduction [4]: 21%
% IGF-I reduction ([4]; listed as Mismatch): 20.98%
IGF-I (ng/ml) Day 7 ([4]; 30 mg/kg sc once every 2 days (days 0, 2, 4, 6)): 81.1 ± 19.16 ng/mL
IGF-I (ng/ml) Day −2 ([4]; pre-treatment value of the group given 30 mg/kg sc once every 2 days): 184.87 ± 55.6 ng/mL

TTACCGTATGGTTCCTCACT (chemistry not given here) [ISIS 260120, unrelated negative control oligonucleotide, reference compound]
effect on serum IGF-I levels seen with the mismatch oligonucleotide (serum IGF-I [2]; 30 mg/kg, 2 weeks): not observed
reduction of growth hormone receptor mRNA levels in liver relative to saline control [5]: approximately 15%
reduction of serum IGF-I relative to saline control (serum IGF-I [6]): 17%
